According to ChEMBL document CHEMBL1156491, “Unexpected inhibition of peptidoglycan LD-transpeptidase from Enterococcus faecium by the beta-lactam imipenem” (J Biol Chem, 2007):
Values after ≈ are worked out from the molar mass of the structure shown. Active and inactive are the calls of the source. The rule behind the calls is not given here.

Assays:
Enterococcus faecium [1] = experiment: Inhibition of Enterococcus faecium LD-transpeptidase assessed by formation of Ac2-L-Lys-D-[14C]Ala from Ac2-L-Lys-D-Ala and D-[14C]Ala at 0.5 ug/ml
Enterococcus faecium [2] = experiment: Antimicrobial activity against Enterococcus faecium M512 by agar dilution method after 48 hrs; type: functional; details: M512, 48 h
[3] = Inhibition of Enterococcus faecium LD-transpeptidase assessed by formation of Ac2-L-Lys-D-[14C]Ala from Ac2-L-Lys-D-Ala and D-[14C]Ala
Enterococcus faecium [4] = experiment: Antimicrobial activity against Enterococcus faecium D344S by agar dilution method after 48 hrs; type: functional
Enterococcus faecium [5] = experiment: Inhibition of Enterococcus faecium LD transpeptidase assessed as enzyme aduct at 3.4 uM by mass spectrometry
Enterococcus faecium [6] = experiment: Inhibition of Enterococcus faecium M512 PBP5fm transpeptidase activity assessed as lactoyl penta-peptide level; design: scale not given: the % may be the effect or the level left
Enterococcus faecium [7] = experiment: Inhibition of Enterococcus faecium M512 PBP5fm transpeptidase activity assessed as tetra -aspartate-penta multimer containing D-Ala4 to D-Asp-L-Lys3 cross links at 128 ug/ml by mass spectrometry; design: scale not given: the % may be the effect or the level left
Enterococcus faecium [8] = experiment: Inhibition of Enterococcus faecium M512 PBP5fm transpeptidase activity assessed as tetra -aspartate-penta-aspartate multimer containing D-Ala4 to D-Asp-L-Lys3 cross links at 128 ug/ml by mass spectrometry; design: scale not given: the % may be the effect or the level left
Enterococcus faecium [9] = experiment: Inhibition of Enterococcus faecium M512 PBP5fm transpeptidase activity assessed as tetra-aspartate-tetra-aspartate-tetra-aspartate multimer containing D-Ala4 to D-Asp-L-Lys3 cross links at 128 ug/ml by mass spectrometry; design: scale not given: the % may be the effect or the level left
Enterococcus faecium [10] = experiment: Inhibition of Enterococcus faecium M512 PBP5fm transpeptidase activity assessed as tetra-aspartate-tri-aspartate multimer containing D-Ala4 to D-Asp-L-Lys3 cross links at 128 ug/ml by mass spectrometry; design: scale not given: the % may be the effect or the level left
Enterococcus faecium [11] = experiment: Inhibition of Enterococcus faecium M512 PBP5fm transpeptidase activity assessed as lactoyl tetra-aspartate-peptide level; design: scale not given: the % may be the effect or the level left
Enterococcus faecium [12] = experiment: Inhibition of Enterococcus faecium M512 PBP5fm transpeptidase activity assessed as lactoyl tripeptide level; design: scale not given: the % may be the effect or the level left
Enterococcus faecium [13] = experiment: Inhibition of Enterococcus faecium M512 PBP5fm transpeptidase activity assessed as tetra -aspartate-tetra-aspartate multimer containing D-Ala4 to D-Asp-L-Lys3 cross links at 128 ug/ml by mass spectrometry; design: scale not given: the % may be the effect or the level left
Enterococcus faecium [14] = experiment: Inhibition of Enterococcus faecium M512 PBP5fm transpeptidase activity assessed as tetra-aspartate-tetra-aspartate-penta-aspartate multimer containing D-Ala4 to D-Asp-L-Lys3 cross links at 128 ug/ml by mass spectrometry; design: scale not given: the % may be the effect or the level left
Enterococcus faecium [15] = experiment: Inhibition of Enterococcus faecium M512 PBP5fm transpeptidase activity assessed as lactoyl penta-aspartate-peptide level; design: scale not given: the % may be the effect or the level left
Enterococcus faecium [16] = experiment: Inhibition of Enterococcus faecium M512 PBP5fm transpeptidase activity assessed as lactoyl tri-aspartate-peptide level; design: scale not given: the % may be the effect or the level left
Enterococcus faecium [17] = experiment: Inhibition of Enterococcus faecium M512 PBP5fm transpeptidase activity assessed as tetra -aspartate-tetra -aspartate-tri-aspartate multimer containing D-Ala4 to D-Asp-L-Lys3 cross links at 128 ug/ml by mass spectrometry; design: scale not given: the % may be the effect or the level left
Enterococcus faecium [18] = experiment: Inhibition of Enterococcus faecium M512 […] transpeptidase activity assessed as tetra-aspartate-tri multimer containing D-Ala4 to D-Asp-L-Lys3 cross links at 128 ug/ml by mass spectrometry; design: scale not given: the % may be the effect or the level left
Enterococcus faecium [19] = experiment: Inhibition of Enterococcus faecium M512 PBP5fm transpeptidase activity assessed as lactoyl tetra-peptide level; design: scale not given: the % may be the effect or the level left
Enterococcus faecium [20] = experiment: Inhibition of Enterococcus faecium M512 PBP5fm transpeptidase activity assessed as tetra -aspartate-tetra multimer containing D-Ala4 to D-Asp-L-Lys3 cross links at 128 ug/ml by mass spectrometry; design: scale not given: the % may be the effect or the level left
Enterococcus faecium [21] = experiment: Inhibition of Enterococcus faecium M512 LDtfm transpeptidase activity assessed as tri-aspartate-tetra multimer containing L-Lys3 to D-Asp-L-Lys3 cross links at 8 ug/ml; design: scale not given: the % may be the effect or the level left
Enterococcus faecium [22] = experiment: Inhibition of Enterococcus faecium M512 LDtfm transpeptidase activity assessed as tri-aspartate-penta multimer containing L-Lys3 to D-Asp-L-Lys3 cross links at 8 ug/ml; design: scale not given: the % may be the effect or the level left
Enterococcus faecium [23] = experiment: Inhibition of Enterococcus faecium M512 LDtfm transpeptidase activity assessed as tri-aspartate-tri-aspartate-tetra-aspartate multimer containing L-Lys3 to D-Asp-L-Lys3 cross links at 8 ug/ml; design: scale not given: the % may be the effect or the level left
Enterococcus faecium [24] = experiment: Inhibition of Enterococcus faecium M512 LDtfm transpeptidase activity assessed as tri-aspartate-tri-aspartate-tri-aspartate multimer containing L-Lys3 to D-Asp-L-Lys3 cross links at 8 ug/ml; design: scale not given: the % may be the effect or the level left
Enterococcus faecium [25] = experiment: Inhibition of Enterococcus faecium M512 LDtfm transpeptidase activity assessed as tri-aspartate-tri-aspartate multimer containing L-Lys3 to D-Asp-L-Lys3 cross links at 8 ug/ml; design: scale not given: the % may be the effect or the level left
Enterococcus faecium [26] = experiment: Inhibition of Enterococcus faecium M512 LDtfm transpeptidase activity assessed as tri-aspartate-tri-aspartate-penta-aspartate multimer containing L-Lys3 to D-Asp-L-Lys3 cross links at 8 ug/ml; design: scale not given: the % may be the effect or the level left
Enterococcus faecium [27] = experiment: Inhibition of Enterococcus faecium M512 LDtfm transpeptidase activity assessed as tri-aspartate-penta-aspartate multimer containing L-Lys3 to D-Asp-L-Lys3 cross links at 8 ug/ml; design: scale not given: the % may be the effect or the level left
Enterococcus faecium [28] = experiment: Inhibition of Enterococcus faecium M512 LDtfm transpeptidase activity assessed as tri-aspartate-tetra-aspartate multimer containing L-Lys3 to D-Asp-L-Lys3 cross links at 8 ug/ml; design: scale not given: the % may be the effect or the level left
Enterococcus faecium [29] = experiment: Inhibition of Enterococcus faecium M512 LDtfm transpeptidase activity assessed as tri-aspartate-tri-aspartate-tetra multimer containing L-Lys3 to D-Asp-L-Lys3 cross links at 8 ug/ml; design: scale not given: the % may be the effect or the level left
Enterococcus faecium [30] = experiment: Inhibition of Enterococcus faecium M512 LDtfm transpeptidase activity assessed as tri-aspartate tri multimer containing L-Lys3 to D-Asp-L-Lys3 cross links at 8 ug/ml; design: scale not given: the % may be the effect or the level left

Compound	Activity (Enterococcus faecium [1])	MIC (Enterococcus faecium [2])	EC50 [3]	MIC (Enterococcus faecium [4])	Activity (Enterococcus faecium [6])	Activity (Enterococcus faecium [11])	Activity (Enterococcus faecium [12])	Activity (Enterococcus faecium [15])	Activity (Enterococcus faecium [16])	Activity (Enterococcus faecium [19])	further results
CO/N=C(\C(=O)N[C@@H]1C(=O)N2C(C(=O)O)=C(CSc3nc(=O)c(O)nn3C)CS[C@H]12)c1csc(N)n1 [CEFTRIAXONE]	200 µg/mL	128 mg/L (≈ 231 µM)	19 mg/L (≈ 34.3 µM)	2 mg/L (≈ 3.61 µM)	–	–	–	–	–	–	–
CC1C(S[C@@H]2CN[C@H](C(=O)Nc3cccc(C(=O)O)c3)C2)=C(C(=O)O)N2C(=O)[C@H]([C@H](C)O)[C@@H]12 (some centres not stated) [ETRAPENEM]	–	16 mg/L (≈ 33.6 µM)	–	1 mg/L (≈ 2.1 µM)	–	–	–	–	–	–	–
CC(O)[C@H]1C(=O)N2C(C(=O)O)=C(S[C@@H]3CN[C@H](C(=O)N(C)C)C3)[C@H](C)[C@H]12 (single isomer, unassigned) [MEROPENEM]	–	8 mg/L (≈ 20.9 µM)	–	1 mg/L (≈ 2.61 µM)	–	–	–	–	–	–	–
CC(O)[C@H]1C(=O)N2C(C(=O)O)=C(SCCNC=N)C[C@H]12 (single isomer, unassigned) [IMIPENEM ANHYDROUS]	Active	0.5 mg/L (≈ 1.67 µM)	0.077 mg/L (≈ 0.257 µM)	0.25 mg/L (≈ 0.835 µM)	2.8%	3%	1.4%	5.4%	4.5%	2.2%	Activity (Enterococcus faecium [5]): Active; Activity (Enterococcus faecium [7]): 0.8%; Activity (Enterococcus faecium [8]): 11.9%; Activity (Enterococcus faecium [9]): 1.6%; Activity (Enterococcus faecium [10]): 23.8%; Activity (Enterococcus faecium [13]): 12%; Activity (Enterococcus faecium [14]): 3.3%; Activity (Enterococcus faecium [17]): 24.7%; Activity (Enterococcus faecium [18]): 0.9%; Activity (Enterococcus faecium [20]): 1.7%
CC1(C)S[C@@H]2[C@H](NC(=O)[C@H](N)c3ccccc3)C(=O)N2[C@H]1C(=O)O [AMPICILLIN]	–	> 2000 mg/L	> 3200 mg/L	0.06 mg/L (≈ 0.172 µM)	1.3%	10.6%	7%	3.7%	18.4%	0.5%	Activity (Enterococcus faecium [21]): 3.7%; Activity (Enterococcus faecium [22]): 6.8%; Activity (Enterococcus faecium [23]): 2.7%; Activity (Enterococcus faecium [24]): 6.1%; Activity (Enterococcus faecium [25]): 18.7%; Activity (Enterococcus faecium [26]): 1.8%; Activity (Enterococcus faecium [27]): 6.1%; Activity (Enterococcus faecium [28]): 6.8%; Activity (Enterococcus faecium [29]): 3%; Activity (Enterococcus faecium [30]): 2.8%
